Laboratory results taken from PubChem BioAssay AID2305 (GlaxoSmithKline (GSK), 2010).
Values joined by “and” are separate entries in the source; they are usually repeats but may differ in a detail not shown here. Equal values may be shown once.

What follows are compounds tested on P. falciparum 3D7 growth, pLDH absorbance (assay: blood-stage malaria parasite growth potency – strain 3D7, dose response (AID 2305)).

SMILES | IC50
CC1(C)CCCN(C(=O)Cc2ccc3c(c2)CCCC3)C1CN1CC=CC1 (configuration not stated) | 720 nM
COc1ccc(-c2ccc(NC(=O)c3cccs3)cc2)cc1CN1CCCN(C)CC1 | 960 nM
OC(CNc1ccnc(Nc2cccc(Cl)c2)n1)c1ccc(C(F)(F)F)cc1 (configuration not stated) | 770 nM
CC1(C)N=C(N)N=C(N)N1OCc1cc2ccccc2cc1CON1C(N)=NC(N)=NC1(C)C | 130 nM
Cc1cnc(NCC2CCCCC2)nc1N[C@@H](CC(C)C)C(=O)Nc1ccccc1 | 870 nM
O=C(/C=C/c1ccc(Cl)c(Cl)c1)NCCCCCN1CCC(n2c(=O)[nH]c3ccccc32)CC1 | 870 nM
Oc1cccc(-c2nc(-c3ccccc3)c(-c3ccc(Oc4ccc(-c5[nH]c(-c6cccc(O)c6)nc5-c5ccccc5)cc4)cc3)[nH]2)c1 | 860 nM
COc1cccc(CCc2cccc(CNC(C)=O)c2)c1 | 1040 nM
CC(C)(CNCc1ccc(F)c(F)c1)c1nc(-c2ccc(Cl)c(O)c2)c(-c2ccnc(N)n2)[nH]1 | 740 nM
COc1ccc(-c2cccc(NC(=O)c3ccc(C#N)cc3)c2)cc1CNC(C)C | 810 nM
CC(C)Sc1nc2c(c(=O)n1CCc1ccccc1)C1(CCCC1)Cc1ccccc1-2 | 350 nM
COc1ccc(F)cc1-c1ccc(C(=O)N2CCCN(c3ccc(C#N)cn3)CC2)cc1 | 110 nM
CN1CCCN(Cc2cccc(-c3cccc(NC(=O)c4ccc(C#N)cc4)c3)c2)CC1 | 1140 nM
O=c1[nH]c2ccc(Nc3nccc(NCCc4ccccc4)n3)cc2[nH]1 | 1210 nM
CC(C)COc1ccc2ccccc2c1CNCCCCCCNCc1c(OCC(C)C)ccc2ccccc12 | 700 nM
CC(C)Cc1ccc(N2CCN(CCCCNC(=O)c3ccc(NC(=O)c4ccc(Cl)c(Cl)c4)cc3)CC2)cc1 | 1200 nM
c1ccc(-c2cc(NCc3cccc4ccccc34)c3[nH]ncc3n2)cc1 | 520 nM
Cc1cc(O)c(CN(C)Cc2ccc3c(c2)OCCO3)cc1C(C)C | 670 nM
CSc1ccccc1NC(=S)NC1CCN(CCCCCNC(=O)/C=C/c2ccc(Cl)c(Cl)c2)CC1 | 780 nM
CN1CCN(c2ccnc3ccc(NC(=O)Nc4ccc5ccccc5c4)cc23)CC1 | 80 nM
O=C(C=Cc1ccc(C(=O)Nc2ccc(C3=NCCN3)cc2)cc1)Nc1ccc(C2=NCCN2)cc1 | 30 nM
C[C@@]12C[C@@H](Nc3nc(NCCc4ccc(O)cc4)nc(N4CCNCC4)n3)C[C@@H](C1)c1cccc(Cl)c1O2 | 1320 nM
CCOc1ccc(NC(=O)c2cccc(CN3CCCN(Cc4cccc(O)c4)CC3)c2)cc1 | 1080 nM
O=C1NC(=O)C(c2cccc(NC(=O)c3ccncc3)c2)=C1c1ccccc1 | 740 nM
Clc1ccc(Cn2nc(Br)nc2Br)c(Cl)c1 | 440 nM

SMILES | IC50
O=C(Nc1ccc(-c2cccc(-c3nc4ccccc4[nH]3)c2)cc1)Nc1ccc(Cl)c(Cl)c1 | 460 nM
Cc1cc(Nc2ccc(OCc3ccccc3Cl)cc2)c2cc(Cl)ccc2n1 | 430 nM
COc1cccc(CN2CCN(C(c3ccccc3)c3ccccc3)CC2)c1O | 780 nM
O=C(NCCCN1CCCCC1)c1ccc(Nc2nccc(Nc3ccc(Oc4ccccc4)cc3)n2)cc1 | 630 nM
COc1ccccc1NC(=O)CSc1nc2cccnc2n1-c1ccccc1OC | 360 nM
Nc1c(I)cc(C(=O)Nc2ccc3nc4c(c(N)c3c2)CCCC4)cc1I | 140 nM
CCC(CC)n1c(COC)cc2c3c(N)nc(N)nc3ccc21 | 10 nM
O=C(/C=C/c1ccc(Cl)c(Cl)c1)NCCCCCCN1CCCN(C(=O)Nc2ccc(C(F)(F)F)cc2)CC1 | 580 nM
CN(c1ccccc1C(=O)Nc1cc(Cl)ccc1Oc1ccccc1)S(=O)(=O)c1ccccc1 | 740 nM
Cc1ccc(C)c2sc(N3CCN(C(=O)c4ccc([N+](=O)[O-])o4)CC3)nc12 | 820 nM
c1cc2nc(CCCCc3nc4ccc(C5=N[C@H]6CCCC[C@H]6N5)cc4[nH]3)[nH]c2cc1C1=N[C@H]2CCCC[C@H]2N1 | 410 nM
CC(C)Nc1nc(NCCc2cnc[nH]2)nc(NCc2cccc3ccccc23)n1 | 1010 nM
COc1cccc(NC(=O)Nc2ccc(Nc3nc(C)cc(N(C)C)n3)cc2)c1 | 170 nM
CC(=O)Nc1ccc(OCCN(CC(C)(C)C)c2ccc(C#N)c(C(F)(F)F)c2)c(Cl)c1 | 490 nM
COc1cncc(/C=C/c2cncc(C(=O)NCCc3ccc(Cl)cc3Cl)c2)c1 | 880 nM
Cc1ccccc1C1CCN(C2CCC(NC(=O)/C=C/c3cc(F)ccc3F)CC2)CC1 (configuration not stated) | 1040 nM
CN(C)CCCOc1cccc(NC(=O)Nc2ccc(Cl)c(Cl)c2)c1 | 960 nM
O=C(Nc1ccc(OC2CCN(Cc3ccc(F)cc3)C2)cc1)c1ccco1 (configuration not stated) | 1040 nM
C/C=C1/CN2CC[C@H]1C[C@H]2[C@H](O)c1ccnc2ccc(O)cc12 | 490 nM
COc1ccc(Nc2nc(NN=Cc3ccc(-c4ccc([N+](=O)[O-])cc4)o3)nc(Nc3ccccc3)n2)cc1 | 760 nM
O=C(Nc1cc(C(F)(F)F)cc(C(F)(F)F)c1)N1CCC(CN2CCC(c3c[nH]c4ccccc34)CC2)CC1 | 190 nM
NC[C@H](CC1CCCCC1)NC(=O)c1ccc(-c2ccnc3[nH]ccc23)s1 | 950 nM
Cc1ccc2[nH]cc(C3CCN(CC4CCC(NC(=O)/C=C/c5ccc(Cl)c(Cl)c5)CC4)CC3)c2c1 (configuration not stated) | 840 nM and 550 nM
COc1ccc2nc3cc(Cl)ccc3c(NCCc3ccccc3)c2c1 | 950 nM
CS(=O)(=O)NCCCNCc1ccc(-c2ccc(-c3nc4ccc(C(F)(F)F)cc4[nH]3)cc2)cc1 | 460 nM

SMILES | IC50
O=C(Nc1ccccc1)c1nn(CCCN2CCC(N3CCCC3)CC2)cc1-c1ccc(Cl)c(Cl)c1 | 240 nM
CCN(CCN(C)C)Cc1ccc(-c2ccc(NS(=O)(=O)c3cccc4cccnc34)cc2)cc1 | 930 nM
Cc1cc(CNCCCCCCNCc2ccc(-c3ccccc3)cc2)ccc1O | 900 nM
C=C[C@]1(C)C[C@@H](OC(=O)CS[C@H]2CN3CC[C@H]2C3)[C@@]2(C)C3C(=O)CC[C@@]3(CC[C@H]2C)[C@@H](C)[C@@H]1O (some centres not stated) | 690 nM
CN(C)CCNC(=O)c1ccc(-c2cnc3ccc(NCc4ccc(Cl)c(Cl)c4)nn23)cc1 | 910 nM
COc1ccc(NC(=O)NC2CCN(c3ccnc4cc(Cl)ccc34)C2)cc1 (configuration not stated) | 100 nM
COc1ccc(CCNCc2cc3c(C(C)(C)C)nn(-c4ccc(Cl)cc4)c3[nH]c2=O)cc1OC | 150 nM
Cc1ccccc1C1CCN(C2CCC(NC(=O)c3ccc4c(c3)-c3nocc3C(C)O4)CC2)CC1 (configuration not stated) | 1270 nM
Nc1nc(N)c2c(ccc3c2ccn3CCCCO)n1 | 120 nM
COC(=O)c1c(NC(=O)c2cccc(C(F)(F)F)c2)sc2c1CCN(Cc1ccccc1)C2 | 1340 nM
Cc1cc(C(=O)Nc2ccc(-c3ccccc3)cc2)no1 | 690 nM
OC1CCCN(Cc2cccc(-c3ccc(-c4nc5ccc(C(F)(F)F)cc5[nH]4)cc3)c2)C1 (configuration not stated) | 690 nM
Nc1ccc2[nH]cc(C3CCN(CC4CCC(NC(=O)/C=C/c5ccc(Cl)c(Cl)c5)CC4)CC3)c2n1 (configuration not stated) | 730 nM
OC(CNc1ccnc(Nc2ccccc2)n1)c1ccc(C(F)(F)F)cc1 (configuration not stated) | 610 nM
Cc1cccc2[nH]c(-c3ccc(-c4cccc(CN5CCN(c6ccncc6)CC5)c4)cc3)nc12 | 120 nM
COc1ccc(NC(=O)Nc2ccc(-c3ccncc3)c(C(F)(F)F)c2)cc1N1CCN(C)CC1 | 760 nM
COc1ccc2nccc([C@@H](O)CN3CCC(NCC4COc5ccccc5O4)CC3)c2c1 (some centres not stated) | 250 nM
Cc1nc(N)nc(N)c1-c1cc(Cl)c(Cl)c(Cl)c1 | 830 nM
COc1ccc2ccccc2c1C=NNc1cc(C)nc2c(C)cccc12 | 820 nM
CN(C)CCCN(C)c1cccc2c1nc(-c1cccnc1)n2CCNCc1ccccc1 | 1390 nM
Cc1cc(N(CCCN(C)C)Cc2cc(F)cc(F)c2)nc(Nc2ccc(Cl)cc2)n1 | 540 nM
C=C[C@]1(C)C[C@@H](OC(=O)NC(=O)CCCS(=O)(=O)c2nnc(C)s2)[C@]2(C)[C@H](C)CC[C@]3(CCC(=O)[C@H]32)[C@@H](C)[C@@H]1O | 30 nM
CCCCOc1cc2c(cc1OCC)C(C=Cc1ccc(Cl)cc1Cl)=NCC2 | 400 nM
COc1ccc(C(=O)CCC(=O)N(Cc2ccc(-c3ccc(CNCc4cccnc4)cn3)cc2)C2CCN(Cc3ccccc3)CC2)cc1F | 980 nM
COc1ccc(-n2ccnc2)cc1CNC1CCN(CC2Cn3c(=O)ccc4ccc(F)c2c43)CC1 (configuration not stated) | 930 nM

SMILES | IC50
O=S(=O)(c1c(Cl)cc(Cl)cc1Cl)N1CCCCC(c2ccc(F)c(F)c2)=N1 | 590 nM
NS(=O)(=O)c1ccc(CNc2ccc3ncc(-c4ccc(OC(F)(F)F)cc4)n3n2)cc1 | 580 nM
O=C(Nc1cccc(-c2cccc(-c3nc4ccccc4[nH]3)c2)c1)N[C@@H]1C[C@H]1c1ccccc1 | 1070 nM and 900 nM
CC1(C)N=C(N)N=C(N)N1OCCCO | 220 nM
Cn1c(Cc2ccccc2)nnc1Sc1ccc(C#N)c([N+](=O)[O-])c1 | 910 nM
Cc1cccc2[nH]c(-c3cccc(-c4cccc(C(=O)NCCN5CCCC5)c4)c3)nc12 | 830 nM
CC(C)CCN(Cc1cncn1Cc1cccc(Cl)c1)C(=O)c1cncc(-c2ccccc2)c1 | 760 nM
COc1ccccc1C1CCN(C2CCC(NC(=O)c3cc4ccccc4[nH]3)CC2)CC1 (configuration not stated) | 1210 nM
Cc1sc2ncnc(Sc3nnc(N)s3)c2c1C | 400 nM
Fc1ccc(CNc2nc(-c3ccc(F)c(C(F)(F)F)c3)n(-c3cccc(C(F)(F)F)c3)n2)cc1 | 560 nM
CCN(CC)S(=O)(=O)n1ncc2c3c(N)nc(N)nc3ccc21 | 50 nM
COc1ccc2nccc([C@@H](O)CN3CCC(NC(=O)C(c4cc5ccccc5o4)N4CCN(c5ccccc5)CC4)CC3)c2c1 (some centres not stated) | 240 nM
OC(CNC1CCCCC1)Cn1c2ccc(Br)cc2c2cc(Br)ccc21 (configuration not stated) | 300 nM
COc1ccc(CNC2CCN(C)CC2)cc1-c1ccc(S(=O)(=O)NC2CCC2)c(F)c1 | 840 nM
Cc1noc(C)c1-c1ccc2c(Nc3ccc(C(F)(F)F)cc3)c(C(N)=O)cnc2c1 | 320 nM
CCN1CCN(c2cc(C)c3cc(NC(=O)c4cccc(OC)c4)ccc3n2)CC1 | 800 nM
Cn1nc(C(=O)N2CCC(c3[nH]ncc3Cc3ccccc3)CC2)c2ccccc2c1=O | 300 nM
CCCCCCNC[C@@H](O)[C@H](Cc1ccccc1)NC(=O)c1cc(NCC)cc(N2CCCCS2(=O)=O)c1 | 1000 nM
COc1ccc(C(O)CNC(C)CCc2ccc(F)cc2)cc1C(F)(F)F (configuration not stated) | 750 nM
CN(C)CCOc1cc(NC(=O)c2ccc(-c3ccc(Cl)cc3Cl)cc2)ccc1-c1ccccc1 | 910 nM
CCCCNC(=O)[C@@H](NC(=O)c1ccc(O)c(-c2ccc(Cl)c(Cl)c2)c1)C(C)C | 230 nM
NS(=O)(=O)c1ccc(Nc2nccc(-c3c(-c4cccc(NC(=O)c5c(F)cccc5F)c4)nn4ccccc34)n2)cc1 | 760 nM
